Assay results from article PMC6121439 (International Journal of Molecular Sciences, 2018).
No end group written: not given here.

Experiments:
[1] = test system: E. coli genes DnaK, ompC, sbmA; assay: Bacterial gene expression by RT-qPCR; assay type: cell-based, Escherichia coli; conditions: 0.1 µM, 30 min, RT-qPCR normalized to GAPDH
Experimental: (§1) The bacterial gene expression of proteins implicated in stress pathways and bacterial resistance response was evaluated following incubation with sub-lethal concentrations of the peptides. The following genes were selected: DnaK gene encoding for a chaperone, ompC gene encoding for a protein porin; sbmA encoding for an integral inner membrane protein that participates in an ABC transporter, parE encoding for a DNA topoisomerase IV and MprF for a lysyl transferase that ensures the synthesis of lysylphosphatidylglycerol (LPG). Total bacterial RNA was extracted using the mirVAna™ Isolation Kit, which integrates an organic extraction and solid-phase extraction to obtain high yields of ultra-pure, high quality RNA. […] Ampicillin was used at the same concentration as a positive control. After incubation cells were sedimented and resuspended in lysis buffer. RNA isolation was done according to manufacturer’s instructions. The amount of RNA extracted was quantified using Quantus™ Fluorometer (Promega). […] Complementary DNA (cDNA) synthesis is the first step of the two-step quantitative reverse transcriptase Polymerase Chain Reaction (RT-qPCR). cDNA was generated by the enzyme reverse transcriptase (RT). An aliquot of 1000 ng of total RNA was used to synthesize cDNA according to the manufacture instruction of iScript™ cDNA Synthesis Kit.
Gene expression of Escherichia coli and Staphylococcus aureus after peptide incubation was determined by Real Time Quantitative Polymerase Chain Reaction (RT-qPCR). The amount of amplified product was measured at each PCR cycle by using fluorescent probes and reading the signal emitted from the dyes while performing the thermal cycling. 1 μL of cDNA (5 ng) was mixed with 2 μL of RNase free water, 5 μL of iTaq Universal Master SYBR green Supermix, 1 μL of each primer of interest (500 nM), for a total volume of 10 μL per reaction. The genes studied in E. coli cells correspond to DnaK, ompC, SbmA and 16S MprF, parE for S. aureus. GAPDH was used as housekeeping for date normalization in the qPCR assays. Gene expression level was analyzed using a comparative quantification method ΔCq. This method assesses the fold change compared to a calibrator sample (control or group of reference). Counts for genes of interest were adjusted in relation to a reference (housekeeper) gene GAPDH. Reactions were subjected to 60 °C for 1 min and 95 °C for 10 min, followed by 40 cycles of 95 °C for 15 s and 60 °C for 1 min. Each sample was analyzed in triplicate. Data analysis was performed using Bio-Rad CFX Manager. The figure of gene level expression was designed by R project.

[2] = test system: E. coli cells; assay: Bacterial membrane depolarization, DiSC3(5) dye; assay type: cell-based, Escherichia coli; conditions: DiSC3(5) 0.4 µM, peptide 0.1 to 5 µM, 20 °C, mean ± SEM
[3] = test system: E. coli (BL21); assay: Minimum bactericidal concentration (CFU counting); assay type: cell-based, Escherichia coli; conditions: ~5 × 10^5 CFU/mL, peptide 20 to 0.1 µM in Hepes 20 mM, 0.1 M NaCl, pH 7.5, 4 h at 37 °C, then plating, two independent experiments in triplicate
Experimental: (§2) Minimum Bactericidal Concentrations (MBC100) were determined by CFU counting following plating of bacterial culture onto Petri dishes after four hours of incubation with serial peptide concentrations. The ED50 was calculated by ATP quantification using the BacTiter-Glo™ Microbial Cell Viability kit (Promega, Madison, WI, USA). Cell cytotoxicity was quantified using resazurin reduction in human monocytes. Fifty percent cytotoxic concentration (CC50) was calculated as described in Materials and methods. […] Values are given as mean ± SEM.
(§3) The MBC of each peptide was determined as described previously. Bacteria were incubated at 37 °C overnight in Luria-Bertani broth (LB) and diluted to approximately 5 × 10^5 CFU/mL. The strains used in this study corresponded to Escherichia coli BL21 from Novagen (Madison, WI, USA), Staphylococcus aureus (ATCC502A) obtained from the Colección Española de Cultivos tipo (CECT), Universidad de Valencia, Spain, Pseudomonas aeruginosa (ATCC® 15692, PAO1), from the American Type Culture Collection (ATCC; Rockville, MD, USA) and P. aeruginosa PA14 were used as reference strains. Three clinical isolates of S. aureus, MRSA (34026, 36055 and 39413) and two clinical isolates of P. aeruginosa (M8C1 and M18C1) were obtained by the kind donation of the Centro de Investigaciones Microbiológicas, CIMIC (Universidad de los Andes, Bogotá, Colombia). […]

[4] = test system: E. coli cells; assay: Minimum agglutination concentration on bacteria; assay type: cell-based, Escherichia coli; conditions: Tris-HCl, 0.1 M NaCl, pH 7.5, 1 h at 37 °C, visual inspection, 50× stereoscope
Experimental: For determination of minimum agglutination concentration (MAC) values, bacterial cells were grown at 37 °C to mid-exponential phase (OD600 = 0.6), centrifuged at 5000× g for 2 min, and resuspended in Tris-HCl buffer, 0.1 M NaCl, pH 7.5 to give an absorbance of 0.2 at 600 nm. A 100 µL aliquot of the bacterial suspension was incubated with the peptide at various (0.01–10 µM) concentrations at 37 °C for 1 h. Agglutination behavior was observed by visual inspection using a 50× stereoscope microscope and the MAC value was expressed as described.

[5] = Liposome leakage, ANTS/DPX; conditions: DOPC/DOPG (3:2) LUVs 30 µM, 37 °C, 20 mM NaCl, 10 mM Tris/HCl pH 7.5
[6] = Liposome agglutination by dynamic light scattering; conditions: DOPC/DOPG LUVs 30 µM; DLS; 25 °C; 10 mM Tris/HCl, 100 mM NaCl pH 7.4; peptide 0.1–2 µM
[7] = test system: E. coli (BL21); assay: Bacterial viability by ATP quantification (BacTiter-Glo); assay type: cell-based, Escherichia coli; conditions: ATP luminescence, 4 h at 37 °C, Hepes 20 mM pH 7.5, 0.1 M NaCl, peptide 100 to 0.1 µM, mean ± SEM, three replicates of two experiments
Experimental: as §2
(§4) Antibacterial activity was assayed by following the cell viability of E. coli and S. aureus, using the BacTiter-Glo™ Microbial Cell Viability kit (Promega), which measures the number of viable bacterial cells, by ATP quantification. ATP, as an indicator of metabolically active cells, is indirectly measured by a coupled luminescence detection assay. The luminescent signal is proportional to the amount of ATP required for the conversion of luciferin into oxyluciferin in the presence of luciferase.

[8] = test system: primary human monocytes; assay: Cytotoxicity by resazurin reduction; assay type: cell-based; conditions: human monocytes 4 × 10^5 cells/well, peptide up to 100 µM, 72 h at 37 °C
Experimental: as §2

[9] = test system: S. aureus cells; assay: FACS internalization of FITC-labeled peptides; assay type: cell-based, Staphylococcus aureus; conditions: FITC-labeled peptide, sublethal concentration (0.5 µM), 10 min
Experimental: (§5) We performed FACS analysis in order to analyze the internalization of the FITC labeled peptides into E. coli and S. aureus cells. […] After corroborating the internalization of the peptides, the labeled peptide distribution was evaluated by FACS. Live/dead cell population was analyzed by monitoring the influx of propidium iodide (PI) at 10 min and 4 h of incubation.
(§6) Bacterial cell overnight culture was inoculated in a fresh LB to reach logarithmic phase OD600 of 0.2. A 500 µL aliquot of the bacterial suspension was incubated with 0.5 µM of each peptide for 10 min. After incubation and subsequently washes with 1× PBS at least thrice to remove presence of FITC-labeled peptide in the medium, 20,000 cells were subjected to FACS analysis using a FACSCalibur cytometer (BD Biosciences, Franklin Lakes, NJ, USA). The peptide bacterial uptake was assayed using 0.10 µM and 0.5 µM of each peptide at the first 10 min and after 4 h of peptide incubation.
(§7) (1 picture or pasted object on this page, not shown here)

[10] = test system: E. coli cells; assay: Bacterial cell leakage, SYTOX Green; assay type: cell-based, Escherichia coli; conditions: SYTOX Green 5 µM, 40 min, Triton X-100 = maximum, mean ± SEM
[11] = test system: S. aureus genes 16S, parE, MprF; assay: Bacterial gene expression by RT-qPCR; assay type: cell-based, Staphylococcus aureus; conditions: 0.1 µM, 30 min, RT-qPCR normalized to GAPDH
Experimental: as §1
Gene expression of Escherichia coli and Staphylococcus aureus after peptide incubation was determined by Real Time Quantitative Polymerase Chain Reaction (RT-qPCR). The amount of amplified product was measured at each PCR cycle by using fluorescent probes and reading the signal emitted from the dyes while performing the thermal cycling. 1 μL of cDNA (5 ng) was mixed with 2 μL of RNase free water, 5 μL of iTaq Universal Master SYBR green Supermix, 1 μL of each primer of interest (500 nM), for a total volume of 10 μL per reaction. The genes studied in E. coli cells correspond to DnaK, ompC, SbmA and 16S MprF, parE for S. aureus. […] Gene expression level was analyzed using a comparative quantification method ΔCq. […] Each sample was analyzed in triplicate. […]

[12] = test system: S. aureus (ATCC 502A); assay: Minimum bactericidal concentration (CFU counting); assay type: cell-based, Staphylococcus aureus; conditions: ~5 × 10^5 CFU/mL, peptide 20 to 0.1 µM in Hepes 20 mM, 0.1 M NaCl, pH 7.5, 4 h at 37 °C, then plating, two independent experiments in triplicate
Experimental: as §2, §3

[13] = test system: S. aureus (ATCC 502A); assay: Bacterial viability by ATP quantification (BacTiter-Glo); assay type: cell-based, Staphylococcus aureus; conditions: ATP luminescence, 4 h at 37 °C, mean ± SEM, three replicates of two experiments
Experimental: as §2, §4

[14] = test system: S.aureus (34026) clinical isolate, MRSA; assay: as above; assay type: cell-based, Staphylococcus aureus; conditions: ATP luminescence, 4 h at 37 °C, mean ± SEM, three replicates of two experiments
Experimental: as §2
(§8) The MBC of each peptide was determined as described previously. Bacteria were incubated at 37 °C overnight in Luria-Bertani broth (LB) and diluted to approximately 5 × 10^5 CFU/mL. […]
as §4, with “The luminescent signal is proportional to the amount of ATP required for the conversion of luciferin into oxyluciferin in the presence of luciferase.” left out

[15] = test system: S.aureus (39413) clinical isolate, MRSA; assay: as above; assay type: cell-based, Staphylococcus aureus; conditions: ATP luminescence, 4 h at 37 °C, mean ± SEM, three replicates of two experiments
Experimental: as §2, §8
as §4, with “The luminescent signal is proportional to the amount of ATP required for the conversion of luciferin into oxyluciferin in the presence of luciferase.” left out

[16] = test system: E. coli cells; assay: FACS internalization of FITC-labeled peptides; assay type: cell-based, Escherichia coli; conditions: FITC-labeled peptide, sublethal concentration (0.5 µM), 10 min
Experimental: as §5, §6, §7

[17] = test system: P. aeruginosa (PA14); assay: Bacterial viability by ATP quantification (BacTiter-Glo); assay type: cell-based, Pseudomonas aeruginosa; conditions: P. aeruginosa PA14 reference strain; ATP luminescence; 4 h at 37 °C; mean ± SEM, three replicates of two experiments
Experimental: as §2, §8
as §4, with “The luminescent signal is proportional to the amount of ATP required for the conversion of luciferin into oxyluciferin in the presence of luciferase.” left out

[18] = test system: P. aeruginosa (PA01); assay: as above; assay type: cell-based, Pseudomonas aeruginosa; conditions: P. aeruginosa PA01 reference strain; ATP luminescence; 4 h at 37 °C; mean ± SEM, three replicates of two experiments
Experimental: as §2, §8
as §4, with “The luminescent signal is proportional to the amount of ATP required for the conversion of luciferin into oxyluciferin in the presence of luciferase.” left out

[19] = test system: P. aeruginosa (M18C1) clinical isolate; assay: as above; assay type: cell-based, Pseudomonas aeruginosa; conditions: ATP luminescence, 4 h at 37 °C, peptide up to 100 µM
Experimental: as §2, §8
as §4, with “The luminescent signal is proportional to the amount of ATP required for the conversion of luciferin into oxyluciferin in the presence of luciferase.” left out

[20] = test system: P. aeruginosa (M8C1) clinical isolate; assay: as above; assay type: cell-based, Pseudomonas aeruginosa; conditions: ATP luminescence, 4 h at 37 °C, peptide up to 100 µM
Experimental: as §2, §8
as §4, with “The luminescent signal is proportional to the amount of ATP required for the conversion of luciferin into oxyluciferin in the presence of luciferase.” left out

[21] = test system: S.aureus (36055) clinical isolate, MRSA; assay: as above; assay type: cell-based, Staphylococcus aureus; conditions: ATP luminescence, 4 h at 37 °C, peptide up to 100 µM
Experimental: as §2, §8
as §4, with “The luminescent signal is proportional to the amount of ATP required for the conversion of luciferin into oxyluciferin in the presence of luciferase.” left out

[22] = test system: pET28 plasmid DNA; assay: DNA binding gel retardation assay; conditions: 200 ng pET28 plasmid DNA; peptide-to-DNA weight ratios 2.5:1, 5:1, 10:1; 20 min room temperature; 1.0% agarose gel

With `CC1(C)S[C@@H]2[C@H](NC(=O)[C@H](N)c3ccccc3)C(=O)N2[C@H]1C(=O)O` [ampicillin, Ampicillin, reference compound] the DnaK gene expression [1] was “upregulated” and the sbmA gene expression [1] was “mild reduction”.

In the case of “GLVGTLLGHIGKAILGG-OH [Peptide F2.3S, Frenatin 2.3S]”, the “Depolarization (ED50), Bacteria” value [2] was 0.1 ± 0.05 µM, the DnaK gene expression [1] was “upregulation” and the ompC gene expression [1] was “upregulated”. For the same compound, the sbmA gene expression [1] was “downregulation”, the MBC100 [3] was 0.62 µM and the “Agglutination (MAC), Bacteria” value [4] was over 5 µM. The “Leakage (ED50), Liposomes” value [5] was 0.1 µM, the “Agglutination (MAC), Liposomes” value [6] was over 2 µM and the ED50 [7] was 0.23 ± 0.01 µM. The CC50 [8] was over 100 µM, the “Internalization into bacterial cells (FACS)” value [9] was “internalization within bacterial cells” and the “Leakage (ED50), Bacteria” value [10] was 0.1 ± 0.07 µM. For the same compound, the 16S gene expression [11] was “did not induce significant changes”, the MprF gene expression [11] was “did not induce significant changes” and the parE gene expression [11] was “did not induce significant changes”. It also gave an MBC100 [12] of 1.87 µM, an ED50 [13] of 1.1 ± 0.07 µM and an ED50 [14] of 55.82 ± 0.005 µM. For the same compound, the ED50 [15] was 11.99 ± 0.001 µM, the “Internalization into bacterial cells (FACS)” value [16] was “internalization within bacterial cells” and the ED50 [17] was 3.1 ± 0.003 µM. The ED50 [18] was 3.4 ± 0.062 µM, the ED50 [19] was over 100 µM and the ED50 [20] was over 100 µM. For the same compound, the ED50 [21] was over 100 µM and the “DNA-binding activity (gel retardation)” value [22] was “high DNA-binding activity”.
